Patent US5612331A, “Tetrahydrocarbazole derivatives as 5-HT1-like agonists” (SmithKline Beecham PLC, priority 1992, dated 1997)
Structures can show the parent of a compound that is named as a salt.

Each compound was assayed against T1, 5-HT1-like receptor (Oryctolagus cuniculus, UniProt P49144) (assay: Rabbit isolated basilar artery, cumulative concentration-effect curves (isometric tension)). Details: rabbit isolated basilar artery rings, endothelium removed; in presence of ascorbate, indomethacin, cocaine, ketanserin and prazosin.
T1 construct: the basilar artery removed with the aid of a dissecting microscope; from tissue; host or cells: rabbit basilar artery ring segments, endothelium removed
Assay type: cell-based
Protocol: Experiments were performed in intracranial arteries from rabbit isolated basilar artery in a similar method to one described previously (Parsons and Whalley, 1989. Eur J Pharmacol 174, 189-196.).
In brief, rabbits were killed by overdose with anaesthetic (sodium pentobarbitone). The whole brain was quickly removed and immersed in ice cold modified Kreb's solution and the basilar artery removed with the aid of a dissecting microscope. The Krebs solution was of the following composition (mM) Na^+ (120); K^+ (5); Ca^2+ (2.25); Mg^2+ (0.5); Cl^- (98.5); SO4^2- (1); EDTA (0.04), equilibrated with 95% O2 /5% CO2. The endothelium was removed by a gentle rubbing of the lumen with a fine metal wire. Arteries were then cut into ring segments (ca 4-5 mm wide) and set up for recording of isometric tension in 50 ml tissue baths in modified Krebs solution with the additional supplement of (mM); […] (20); fumarate (10); pyruvate (5); L-glutamate (5) and glucose (10). The arteries were then placed under a resting force of 3-4 mN maintained at 37° C. and the solution bubbled with 95% O2 /5% CO2.
After tests for initial reactivity with 90 mM KCl depolarising solution and for lack of acetylcholine-induced relaxation of 5-HT ([…]) precontraction, cumulative concentration-effect curves ([…]) to 5-HT were constructed in the presence of ascorbate […], cocaine […], indomethacin […], ketanserin […] and prazosin […].
Following a 45-60 min wash period, cumulative concentration-effect curves to the test compounds or 5-HT (as a time match control) were constructed in the presence of ascorbate, indomethacin, cocaine, ketanserin and prazosin.

T1 sequence (P49144 whole entry): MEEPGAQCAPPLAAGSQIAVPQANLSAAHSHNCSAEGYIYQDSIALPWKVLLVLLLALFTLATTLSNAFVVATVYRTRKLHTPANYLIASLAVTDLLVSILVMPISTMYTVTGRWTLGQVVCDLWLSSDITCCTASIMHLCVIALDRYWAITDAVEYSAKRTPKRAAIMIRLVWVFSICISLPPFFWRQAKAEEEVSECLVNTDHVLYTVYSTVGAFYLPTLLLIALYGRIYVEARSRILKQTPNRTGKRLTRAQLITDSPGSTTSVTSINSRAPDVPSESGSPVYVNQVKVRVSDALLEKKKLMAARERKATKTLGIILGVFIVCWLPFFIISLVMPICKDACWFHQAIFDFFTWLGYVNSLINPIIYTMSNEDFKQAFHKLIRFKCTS

EC50, 90 to 4010 nM:
NC1CCc2[nH]c3ccc(C(=O)NCCCc4ccccc4)cc3c2C1 (stereo not drawn) [Example 1, 3-Amino-6-N-(3-phenylpropyl)carboxamido-1,2,3,4-tetrahydrocarbazole oxalate salt]
NC1CCc2[nH]c3ccc(C(=O)NCCc4ccccc4)cc3c2C1 (stereo not drawn) [Example 3, 3-Amino-6-N-(2-phenylethyl)carboxamido-1,2,3,4-tetrahydrocarbazole]
NC1CCc2[nH]c3ccc(C(=O)NCCc4ccc([N+](=O)[O-])cc4)cc3c2C1 (stereo not drawn) [Example 5, 3-Amino-6-N-[2-(4-nitrophenyl)ethyl]carboxamido-1,2,3,4-tetrahydrocarbazolefumarate salt]
Nc1ccc(CCNC(=O)c2ccc3[nH]c4c(c3c2)CC(N)CC4)cc1 (stereo not drawn) [Example 6, 3-Amino-6-N-[2-(4-aminophenyl)ethyl]carboxamido-1,2,3,4-tetrahydrocarbazoleoxalate salt]
CS(=O)(=O)Nc1ccc(CCNC(=O)c2ccc3[nH]c4c(c3c2)CC(N)CC4)cc1 (stereo not drawn) [Example 7, 3-Amino-6-N-[2-(4-methylsulphonamidophenyl)ethyl]carboxamido-1,2,3,4-tetrahydrocarbazole oxalate salt]
COc1ccc(CCNC(=O)c2ccc3[nH]c4c(c3c2)CC(N)CC4)cc1 (stereo not drawn) [Example 8, 3-Amino-6-N-[2-(4-methoxyphenyl)ethyl]carboxamido-1,2,3,4-tetrahydrocarbazole oxalate salt]
NC1CCc2[nH]c3ccc(C(=O)NCCc4ccc(S(N)(=O)=O)cc4)cc3c2C1 (stereo not drawn) [Example 9, 3-Amino-6-N-[2-(4-phenylsulphonamido)ethyl]carboxamido-1,2,3,4-tetrahydrocarbazole]
COc1ccc(/C=C/CNC(=O)c2ccc3[nH]c4c(c3c2)CC(N)CC4)cc1 (stereo not drawn) [Example 13, 3-Amino-6-[E-3-(4-methoxyphenyl)prop-2-enyl]carboxamido-1,2,3,4-tetrahydrocarbazole oxalate salt]
COc1cccc(/C=C/CNC(=O)c2ccc3[nH]c4c(c3c2)CC(N)CC4)c1 (stereo not drawn) [Example 14, 3-Amino-6-[E-3-(3-methoxyphenyl)prop-2-enyl]carboxamido-1,2,3,4-tetrahydrocarbazole oxalate salt]
NC1CCc2[nH]c3ccc(C(=O)NC/C=C/c4ccccc4)cc3c2C1 (stereo not drawn) [Example 15, 3-Amino-6-(E-3-(phenylprop-2-enyl)carboxamido-1,2,3,4-tetrahydrocarbazole oxalate salt]
COc1ccc(CCCNC(=O)c2ccc3[nH]c4c(c3c2)CC(N)CC4)cc1 (stereo not drawn) [Example 17, 3-Amino-6-[3-(4-methoxyphenyl)propyl]carboxamido-1,2,3,4-tetrahydrocarbazole oxalate salt]
NC1CCc2[nH]c3ccc(C(=O)NC/C=C/c4cccc([N+](=O)[O-])c4)cc3c2C1 (stereo not drawn) [Example 18, 3-Amino-6-[E-3 (3-nitrophenyl)prop-2-enyl]carboxamido-1,2,3,4-tetrahydrocarbazole oxalate salt]
